Experimental data as given in US8110605B2, “Compound for inactivating viruses and bacteria and method of making same” (priority 2009, dated 2012).
Where “and” joins values, the source holds several entries; their conditions need not be identical. Identical values can stand only once. Like-named read-outs stand apart in the source and are kept apart here.

Experiments:
[1] = test system: Tamiflu™-resistant strain H1N1 influenza virus (A/TW/066/09); type: cell-based
[2] = test system: Tamiflu™-resistant H1N1 subtype influenza virus (A/TW/066/09) virions

O=C(O)C(CCCCCCCCCCS)C(=O)O [2-(10-mercaptodecyl)-propanedioic acid]
concentration protecting cells against infection by Tamiflu-resistant H1N1 influenza virus (as low as) [1]: 30 ppm | CPE, Tamiflu-resistant H1N1 influenza virus treated with compound ([1]; 3 ppm): + | CPE, Tamiflu-resistant H1N1 influenza virus treated with compound ([1]; 30 ppm): − | CPE, Tamiflu-resistant H1N1 influenza virus treated with compound ([1]; 100 ppm): − | CPE, Tamiflu-resistant H1N1 influenza virus treated with compound ([1]; 300 ppm): − | CPE, Tamiflu-resistant H1N1 influenza virus treated with compound ([1]; 1,000 ppm): CTX | CPE, Tamiflu-resistant H1N1 influenza virus treated with compound ([1]; 3,000 ppm): CTX | maximum height of particles (AFM cursor profile) [2]: ~6.95 nm and ~5.28 nm | viral morphology by AFM [2]: disrupted and somewhat flattened | calculated RMS height of treated particles ([2]; 30 ppm): 7.09±0.42 nm | calculated RMS height of treated particles ([2]; 300 ppm): 5.39±0.23 nm
